Data published in patent US20120009124A1, “USE OF BUFFERS FOR RADIONUCLIDE COMPLEXATION” (GUERBET, priority 2009, published 2012).
Where two headings read alike, the source gives them in different places. Where a SMILES comes first, the peptide text is derived from it. [ ]: non-standard residue; d: D form.

Assays:
[1] = molecular target: CXCR4 (Homo sapiens, UniProt P61073); test: IC50 of cyclic peptides for targeting CXCR4; format: binding; conditions: peptide biovectors for targeting CXCR4
[2] = From the text: It is also possible to combine several buffers in combination (buffer mixtures) in particular so as to optimize the buffering capacity ranges and the choice of the chelates and of the biovectors, it being specified that not all chelates necessarily have the same complexation, depending on the buffer under consideration.

CXCR4, sequence (P61073 whole entry, species assumed): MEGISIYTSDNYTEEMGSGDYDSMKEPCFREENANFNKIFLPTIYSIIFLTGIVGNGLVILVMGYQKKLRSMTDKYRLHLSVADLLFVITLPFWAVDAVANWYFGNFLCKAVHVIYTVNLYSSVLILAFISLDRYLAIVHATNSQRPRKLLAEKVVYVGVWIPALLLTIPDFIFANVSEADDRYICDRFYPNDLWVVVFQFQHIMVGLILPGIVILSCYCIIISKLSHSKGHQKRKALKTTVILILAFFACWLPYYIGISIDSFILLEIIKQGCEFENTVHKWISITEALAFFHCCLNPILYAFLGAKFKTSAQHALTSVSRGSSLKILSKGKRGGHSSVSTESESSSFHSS

IC50 [1] [nM]	Compound	buffering capacity (pKa value +/-1) [2]	other results
18	N=C(N)NCCC[C@@H]1NC(=O)[C@H](CCCNC(=N)N)NC(=O)[C@@H](Cc2ccc(O)cc2)NC(=O)CNC(=O)[C@H](Cc2nc3ccccc3s2)NC1=O [Bth]	–	–
13	N=C(N)NCCC[C@@H]1NC(=O)[C@H](CCCNC(=N)N)NC(=O)[C@@H](Cc2ccc(O)cc2)NC(=O)CNC(=O)[C@H](Cc2c[nH]c3ccccc23)NC1=O [Trp] (cyclo([dY]RRWG))	–	–
–	O=C(O)O [carbonate]	–	buffering capacity (pKa value +/-1) ([2]; pH range): 5.35-11.33
–	O=C(O)C(O)C(O)C(=O)O (centres unmarked) [tartrate]	2.04-5.37	–
–	phosphate	1.12-13.67	–
